Holding throughout (type): functional
The test system of one test is Proteus mirabilis. The test is described as follows: In vitro antibacterial activity (minimum inhibitory concentration, MIC) against Proteus mirabilis A 9900.
Another test deals with Haemophilus influenzae. The test is described as follows: In vitro antibacterial activity against Haemophilus influenzae A 21515.
Test [1] relates to Staphylococcus aureus. The test is described as follows: In vitro antibacterial activity against Staphylococcus aureus A 24227.
In the next test the test system is Escherichia coli. The test is described as follows: In vitro antibacterial activity against Escherichia coli A 15119.
The test system of another test is Klebsiella pneumoniae. The test is described as follows: In vitro antibacterial activity against Klebsiella pneumoniae A 9664.
The next test deals with Enterobacter cloacae. The test is described as follows: In vitro antibacterial activity against Enterobacter cloacae A 9656.
For a further test, the system named is Pseudomonas aeruginosa. The test is described as follows: Compound was tested in vitro for its antibacterial activity (minimum inhibitory concentration, MIC) against Pseudomonas aeruginosa A 9843.
The next test relates to Serratia marcescens. The test is described as follows: In vitro antibacterial activity (minimum inhibitory concentration) against Serratia marcescens A 20019.
In another test the test system is Streptococcus pneumoniae. The test is described as follows: In vitro antibacterial activity against Streptococcus pneumoniae A 9585.
A further test deals with Enterococcus faecalis. The test is described as follows: In vitro antibacterial activity against Enterococcus faecalis A 9809.
A further test concerns Bacteroides fragilis. The test is described as follows: Compound was tested in vitro for its antibacterial activity (minimum inhibitory concentration) against Bacteroides fragilis A 22862. Particulars: A22862.
Test [2] has as its system Staphylococcus aureus. The test is described as follows: In vitro antibacterial activity (minimum inhibitory concentration, MIC) against Staphylococcus aureus A 9537.
The next test concerns Morganella morganii. The test is described as follows: In vitro antibacterial activity against Morganella morganii A 15153.

We go through twelve compounds from ChEMBL document CHEMBL1125733, “Fluoronaphthyridines and -quinolones as antibacterial agents. 3. Synthesis and structure-activity relationships of new 1-(1,1-dimethyl-2-fluoroethyl), 1-[1-methyl-1-(fluoromethyl)-2-fluoroethyl], and 1-[1,1-(difluoromethyl)-2-fluoroethyl] substituted derivatives” (J Med Chem, 1991).

Values after ≈ are worked out from the molar mass of the structure shown.

For `CC(CF)(CF)n1cc(C(=O)O)c(=O)c2cc(F)c(N3CC[C@H](N)C3)nc21.CS(=O)(=O)O`, the MIC stood at 4 µg/mL against Proteus mirabilis; 0.25 µg/mL against Haemophilus influenzae; 4 µg/mL against Staphylococcus aureus [1]; 0.5 µg/mL in the test on Escherichia coli; 2 µg/mL in the test with Klebsiella pneumoniae; 0.5 µg/mL in the test with Enterobacter cloacae. In addition, the MIC against Pseudomonas aeruginosa worked out at 8 µg/mL; with Serratia marcescens, 2 µg/mL; with Streptococcus pneumoniae it was 16 µg/mL; against Enterococcus faecalis, 16 µg/mL; against Bacteroides fragilis, 125 µg/mL; against Staphylococcus aureus [2] it was 8 µg/mL. Moreover, the MIC with Morganella morganii was 0.5 µg/mL.

For `CS(=O)(=O)O.C[C@H]1C[C@H](N)CN1c1cc2c(cc1F)c(=O)c(C(=O)O)cn2C(C)(C)CF`, the MIC in the test on Proteus mirabilis was 0.13 µg/mL; with Haemophilus influenzae, 0.016 µg/mL; with Staphylococcus aureus [1] it was 0.03 µg/mL; in the test on Escherichia coli, 0.03 µg/mL; in the test on Klebsiella pneumoniae it was 0.13 µg/mL; with Enterobacter cloacae it was 0.06 µg/mL. Moreover, the MIC against Pseudomonas aeruginosa came out at 1 µg/mL; in the test with Serratia marcescens, 0.25 µg/mL; in the test on Streptococcus pneumoniae, 0.25 µg/mL; in the test on Enterococcus faecalis, 0.25 µg/mL; with Bacteroides fragilis it was 4 µg/mL; in the test on Staphylococcus aureus [2], 0.03 µg/mL. Besides, the MIC in the test on Morganella morganii amounted to 0.5 µg/mL.

`C[C@H]1CN(c2cc3c(cc2F)c(=O)c(C(=O)O)cn3C(C)(C)CF)C[C@@H]1N`: the MIC against Proteus mirabilis worked out at 0.06 µg/mL (≈ 0.158 µM); against Haemophilus influenzae it was 0.008 µg/mL (≈ 0.0211 µM); in the test on Staphylococcus aureus [1], 0.06 µg/mL (≈ 0.158 µM); against Escherichia coli, 0.008 µg/mL (≈ 0.0211 µM); against Klebsiella pneumoniae it was 0.13 µg/mL (≈ 0.343 µM); in the test with Enterobacter cloacae it was 0.03 µg/mL (≈ 0.0791 µM). For the same compound, the MIC amounted to 0.5 µg/mL (≈ 1.32 µM) in the test on Pseudomonas aeruginosa; 0.13 µg/mL (≈ 0.343 µM) against Serratia marcescens; 0.25 µg/mL (≈ 0.659 µM) in the test with Streptococcus pneumoniae; 0.25 µg/mL (≈ 0.659 µM) against Enterococcus faecalis; 4 µg/mL (≈ 10.5 µM) in the test on Bacteroides fragilis; 0.03 µg/mL (≈ 0.0791 µM) against Staphylococcus aureus [2]. The MIC against Morganella morganii is 0.06 µg/mL (≈ 0.158 µM).

Consider `CC(CF)(CF)n1cc(C(=O)O)c(=O)c2cc(F)c(N3CC[C@H](N)C3)cc21.CS(=O)(=O)O`, for which the MIC against Proteus mirabilis worked out at 0.03 µg/mL; in the test with Haemophilus influenzae it was 0.001 µg/mL; against Staphylococcus aureus [1], 0.13 µg/mL; with Escherichia coli it was 0.008 µg/mL; against Klebsiella pneumoniae, 0.13 µg/mL; in the test with Enterobacter cloacae, 0.06 µg/mL. Besides, the MIC against Pseudomonas aeruginosa stood at 0.25 µg/mL; against Serratia marcescens it was 0.13 µg/mL; against Streptococcus pneumoniae, 0.5 µg/mL; in the test with Enterococcus faecalis, 0.5 µg/mL; against Bacteroides fragilis it was 4 µg/mL; against Staphylococcus aureus [2], 0.06 µg/mL. The compound further gave an MIC in the test with Morganella morganii of 0.016 µg/mL.

In the case of `CC(CF)(CF)n1cc(C(=O)O)c(=O)c2cc(F)c(N3CCNCC3)nc21.Cl`, the MIC amounted to 1 µg/mL with Proteus mirabilis; 0.25 µg/mL against Haemophilus influenzae; 4 µg/mL with Staphylococcus aureus [1]; 0.13 µg/mL against Escherichia coli; 0.25 µg/mL with Klebsiella pneumoniae; 0.25 µg/mL in the test with Enterobacter cloacae. Moreover, the MIC in the test on Pseudomonas aeruginosa is 4 µg/mL; against Serratia marcescens, 0.5 µg/mL; against Streptococcus pneumoniae it was 16 µg/mL; against Enterococcus faecalis it was 16 µg/mL; against Bacteroides fragilis it was 125 µg/mL; against Staphylococcus aureus [2], 4 µg/mL. For the same compound, the MIC against Morganella morganii is 0.13 µg/mL.

Take `CC(CF)(CF)n1cc(C(=O)O)c(=O)c2cc(F)c(N3CCNCC3)cc21.Cl`: the MIC turned out to be 0.13 µg/mL with Proteus mirabilis; 0.06 µg/mL in the test with Haemophilus influenzae; 2 µg/mL in the test with Staphylococcus aureus [1]; 0.13 µg/mL in the test on Escherichia coli; 0.13 µg/mL with Klebsiella pneumoniae; 0.25 µg/mL in the test with Enterobacter cloacae. The MIC in the test on Pseudomonas aeruginosa stood at 1 µg/mL; in the test on Serratia marcescens it was 0.5 µg/mL; in the test with Streptococcus pneumoniae it was 8 µg/mL; against Enterococcus faecalis, 1 µg/mL; against Bacteroides fragilis it was 16 µg/mL; in the test with Staphylococcus aureus [2], 1 µg/mL. Besides, the MIC with Morganella morganii was 0.06 µg/mL.

With `CC(C)(CF)n1cc(C(=O)O)c(=O)c2cc(F)c(N3CCNCC3)cc21.Cl`, the MIC with Proteus mirabilis stood at 0.03 µg/mL; against Haemophilus influenzae it was 0.016 µg/mL; in the test on Staphylococcus aureus [1] it was 0.06 µg/mL; against Escherichia coli it was 0.016 µg/mL; with Klebsiella pneumoniae it was 0.016 µg/mL; against Enterobacter cloacae, 0.03 µg/mL. Also, the MIC in the test on Pseudomonas aeruginosa was 0.25 µg/mL; with Serratia marcescens, 0.06 µg/mL; with Streptococcus pneumoniae, 1 µg/mL; against Enterococcus faecalis, 0.25 µg/mL; in the test on Bacteroides fragilis, 8 µg/mL; in the test with Staphylococcus aureus [2], 0.13 µg/mL. This compound came in with an MIC in the test with Morganella morganii of 0.016 µg/mL.

As to `C[C@H]1C[C@H](N)CN1c1nc2c(cc1F)c(=O)c(C(=O)O)cn2C(CF)(CF)CF.Cl`, the MIC is 4 µg/mL in the test on Proteus mirabilis; 0.5 µg/mL against Haemophilus influenzae; 1 µg/mL in the test with Staphylococcus aureus [1]; 0.5 µg/mL against Escherichia coli; 2 µg/mL with Klebsiella pneumoniae; 1 µg/mL with Enterobacter cloacae. Also, the MIC against Pseudomonas aeruginosa is 32 µg/mL; in the test on Serratia marcescens, 2 µg/mL; with Streptococcus pneumoniae, 8 µg/mL; against Enterococcus faecalis, 4 µg/mL; with Bacteroides fragilis, 125 µg/mL; in the test on Staphylococcus aureus [2], 0.5 µg/mL. Further, in the test on Morganella morganii, the MIC is 2 µg/mL.

In the case of `Cl.O=C(O)c1cn(C(CF)(CF)CF)c2nc(N3CCNCC3)c(F)cc2c1=O`, the MIC came to 2 µg/mL in the test with Proteus mirabilis; 0.5 µg/mL in the test on Haemophilus influenzae; 8 µg/mL against Staphylococcus aureus [1]; 0.5 µg/mL in the test on Escherichia coli; 1 µg/mL in the test with Klebsiella pneumoniae; 0.5 µg/mL in the test with Enterobacter cloacae. The MIC against Pseudomonas aeruginosa came out at 16 µg/mL; against Serratia marcescens it was 1 µg/mL; with Streptococcus pneumoniae, 32 µg/mL; in the test on Enterococcus faecalis, 16 µg/mL; in the test with Bacteroides fragilis it was 125 µg/mL; against Staphylococcus aureus [2], 8 µg/mL. Also, in the test on Morganella morganii, the MIC came out at 0.5 µg/mL.

In the case of `CC(C)(CF)n1cc(C(=O)O)c(=O)c2cc(F)c(N3C[C@H]4CC3CN4)cc21.Cl`, the MIC against Proteus mirabilis was 0.06 µg/mL; in the test with Haemophilus influenzae, 0.008 µg/mL; against Staphylococcus aureus [1], 0.25 µg/mL; with Escherichia coli it was 0.016 µg/mL; against Klebsiella pneumoniae it was 0.06 µg/mL; with Enterobacter cloacae it was 0.06 µg/mL. For the same compound, the MIC against Pseudomonas aeruginosa is 0.25 µg/mL; against Serratia marcescens, 0.13 µg/mL; against Streptococcus pneumoniae, 1 µg/mL; in the test with Enterococcus faecalis, 0.5 µg/mL; in the test on Bacteroides fragilis, 8 µg/mL; in the test on Staphylococcus aureus [2], 0.5 µg/mL. The same compound had an MIC in the test with Morganella morganii of 0.13 µg/mL.

Take `CC(C)(CF)n1cc(C(=O)O)c(=O)c2cc(F)c(N3CC[C@H](N)C3)nc21.Cl`: the MIC against Proteus mirabilis is 0.5 µg/mL; with Haemophilus influenzae it was 0.5 µg/mL; in the test on Staphylococcus aureus [1] it was 0.13 µg/mL; in the test on Escherichia coli, 0.03 µg/mL; against Klebsiella pneumoniae, 0.03 µg/mL; against Enterobacter cloacae it was 0.13 µg/mL. Moreover, the MIC is 1 µg/mL in the test on Pseudomonas aeruginosa; 0.25 µg/mL against Serratia marcescens; 0.03 µg/mL in the test with Streptococcus pneumoniae; 4 µg/mL against Enterococcus faecalis; 16 µg/mL in the test on Bacteroides fragilis; 0.03 µg/mL against Staphylococcus aureus [2]. This compound returned an MIC against Morganella morganii of 0.06 µg/mL.

On to `CC(C)(CF)n1cc(C(=O)O)c(=O)c2cc(F)c(N3CC(N)C3)cc21.Cl`, for which the MIC with Proteus mirabilis amounted to 0.06 µg/mL; against Haemophilus influenzae, 0.06 µg/mL; against Staphylococcus aureus [1] it was 0.016 µg/mL; with Escherichia coli it was 0.004 µg/mL; with Klebsiella pneumoniae, 0.016 µg/mL; with Enterobacter cloacae, 0.06 µg/mL. Moreover, the MIC came to 0.5 µg/mL in the test on Pseudomonas aeruginosa; 0.13 µg/mL in the test with Serratia marcescens; 1 µg/mL against Streptococcus pneumoniae; 0.5 µg/mL against Enterococcus faecalis; 2 µg/mL with Bacteroides fragilis; 0.016 µg/mL in the test on Staphylococcus aureus [2]. The MIC with Morganella morganii turned out to be 0.016 µg/mL.
